Data: PubChem BioAssay (NCI)
“And” between values parts separate entries of the source, which are not always exact repeats. Equal values may be shown once.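 Results reflect a 48-hour exposure of cells in 96-well plates to compound at five concentrations. GI50 = concentration required for 50% inhibition of growth. TGI is the concentration that stops growth completely.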

Tests used:
Experiment in all cases: NCI anticancer screen, dose series, 48 h
SK-MEL-2 melanoma = test system: SK-MEL-2 melanoma
K-562 leukemia = test system: K-562 leukemia
IGROV1 ovarian = test system: IGROV1 ovarian
HCT-116 colon = test system: HCT-116 colon
SNB-75 CNS = test system: SNB-75 CNS
U251 CNS = test system: U251 CNS
UACC-62 melanoma = test system: UACC-62 melanoma
CCRF-CEM leukemia = test system: CCRF-CEM leukemia
SF-268 CNS = test system: SF-268 CNS
NCI/ADR-RES ovarian = test system: NCI/ADR-RES ovarian

| Compound | GI50 (SK-MEL-2 melanoma) | TGI (SK-MEL-2 melanoma) | GI50 (K-562 leukemia) | TGI (K-562 leukemia) [µM] | GI50 (IGROV1 ovarian) | TGI (IGROV1 ovarian) | GI50 (HCT-116 colon) | TGI (HCT-116 colon) | GI50 (SNB-75 CNS) | TGI (SNB-75 CNS) | GI50 (U251 CNS) | TGI (U251 CNS) | GI50 (UACC-62 melanoma) | TGI (UACC-62 melanoma) | GI50 (CCRF-CEM leukemia) | TGI (CCRF-CEM leukemia) [µM] | GI50 (SF-268 CNS) | TGI (SF-268 CNS) | GI50 (NCI/ADR-RES ovarian) | TGI (NCI/ADR-RES ovarian) |
| --- | --- | --- | --- | --- | --- | --- | --- | --- | --- | --- | --- | --- | --- | --- | --- | --- | --- | --- | --- | --- |
| N=C(N)c1ccc(N2CCCN(c3ccc(C(=N)N)cc3)CC2)cc1 | > 100 µM | > 100 µM | 89.6 µM | > 100 | > 100 µM | > 100 µM | > 100 µM | > 100 µM | > 100 µM | > 100 µM | 47.7 µM | > 100 µM | 89 µM | > 100 µM | > 100 µM | > 100 | 57.7 µM | > 100 µM | > 100 µM | > 100 µM |
| Cc1ccc(NC(=O)/C=C/c2ccccc2)c(C(N)=O)c1 | 4.75 µM | 31.6 µM | 1.06 µM | > 100 | 4.89 µM | > 56.1 µM | 2.96 µM | > 76.8 µM | 2.62 µM | 15.1 µM | 3.8 µM | > 100 µM | 3.44 µM | > 80.8 µM | 2.33 µM | > 29.2 | 7.19 µM | > 100 µM | 2.54 µM | 18.2 µM |
| Cc1ccc(C(=O)Nc2cccc(C(F)(F)F)c2)cc1Nc1nc(-c2cccnc2)nc2c1cnn2C | 0.721 µM and 0.367 µM | 5.03 µM and 2.07 µM | 0.0359 µM and 0.0309 µM | > 100 | 1.74 µM and 0.851 µM | 8.71 µM and 5 µM | 0.917 µM and 0.377 µM | 2.87 µM and 3.67 µM | 2.83 µM and 2.17 µM | 11.1 µM and 6.05 µM | 3.66 µM and 2.9 µM | 22 µM and > 10 µM | 0.628 µM and 0.335 µM | 5.37 µM and 4.25 µM | 3.02 µM and 2.44 µM | > 100 | 4.01 µM and 2.91 µM | 21.9 µM and > 10 µM | 2.19 µM and 1.54 µM | 6.96 µM and 5.68 µM |
| Cn1c2c(cc(S(=O)(=O)c3ccccc3)c1=O)CCc1c-2cnn1-c1ccc(Cl)cc1 | 2.56 µM | 5.9 µM | > 100 µM | > 100 | 3.22 µM | > 100 µM | 4.14 µM | > 100 µM | 1.93 µM | 4.02 µM | 2.1 µM | 3.98 µM | 2.35 µM | 5.07 µM | > 100 µM | > 100 | 2.24 µM | 5.12 µM | 3.09 µM | 8.94 µM |
| CC(=O)NC1=C(OS(=O)(=O)c2ccc(C)cc2)CN(C)C1=O |  | 9.63 µM |  | 28.3 |  | 12.1 µM |  | 12 µM |  | 15.1 µM |  | 8.75 µM |  | 21.2 µM |  | 4.28 |  | 45 µM |  | 44.9 µM |
| Cc1ccc(C2=NOC3=c4ccccc4=CSC3=C2c2ccc([N+](=O)[O-])cc2)cc1 | 31.5 µM | > 100 µM | 36.1 µM | > 100 | 14.2 µM | > 100 µM | 3.35 µM | > 100 µM | 24.5 µM | 81.4 µM | 10.3 µM | 36.1 µM | 14.5 µM | 31.3 µM | 39.3 µM | > 100 | 18.1 µM | 46.7 µM | 31.4 µM | > 100 µM |
| CNC(=O)OCc1c(COC(=O)NC)c(C)n(-c2ccc(Br)cc2)c1C |  | 31 µM |  | 95.1 |  | 19.1 µM |  | 25.8 µM |  | 19.1 µM |  | 25.5 µM |  | 18.5 µM |  | 48.2 |  | 34.5 µM |  | 34.9 µM |
| C/C(=N\Nc1ccc2ccccc2n1)c1ccccn1 | 0.263 µM | 9.01 µM |  | 1.68 |  | 0.979 µM | < 0.0472 µM | 3.03 µM | 0.123 µM | 17.6 µM | 0.0462 µM | 1.48 µM | 0.104 µM | 0.652 µM |  | 0.0284 | 0.0489 µM | 10.8 µM | 0.0653 µM | 7.19 µM |
| C=CC(=O)N(C)[C@H]1C[C@H]2OC(C)(C1OC)n1c3ccccc3c3c4c(c5c6ccccc6n2c5c31)C(=O)NC4 (stereo not given in full) | 0.193 µM | 1.49 µM | 0.233 µM | > 50 |  |  | 0.0681 µM | 0.672 µM | 0.0137 µM | 0.0766 µM | 0.123 µM | 0.913 µM | 0.13 µM | 0.835 µM | 0.0337 µM | 1.35 | 0.0599 µM | 1.26 µM | 0.182 µM | 3.59 µM |
| COc1cccc(C=Nc2cc(C)ccn2)c1O.COc1cccc(C=Nc2cc(C)ccn2)c1O.[Cu] | 21.1 µM | 53.2 µM | 18.2 µM | 68.1 | 21.4 µM | 48.8 µM | 14.1 µM | 32.3 µM | 18.8 µM | 44.9 µM | 15.7 µM | 51.1 µM | 15.8 µM | 31.9 µM | 6.01 µM | 32.1 | 14.6 µM | 42.2 µM | 19.1 µM | 68.3 µM |
